Assay [1] deals with T1, Zwf1 (glucose-6-phosphate dehydrogenase) (Saccharomyces cerevisiae, UniProt P11412).
T1 construct: full-length, untagged; overexpressed from truncated HXT7 promoter at the genomic ZWF1 locus; crude yeast extract
T1 sequence (P11412 2-505): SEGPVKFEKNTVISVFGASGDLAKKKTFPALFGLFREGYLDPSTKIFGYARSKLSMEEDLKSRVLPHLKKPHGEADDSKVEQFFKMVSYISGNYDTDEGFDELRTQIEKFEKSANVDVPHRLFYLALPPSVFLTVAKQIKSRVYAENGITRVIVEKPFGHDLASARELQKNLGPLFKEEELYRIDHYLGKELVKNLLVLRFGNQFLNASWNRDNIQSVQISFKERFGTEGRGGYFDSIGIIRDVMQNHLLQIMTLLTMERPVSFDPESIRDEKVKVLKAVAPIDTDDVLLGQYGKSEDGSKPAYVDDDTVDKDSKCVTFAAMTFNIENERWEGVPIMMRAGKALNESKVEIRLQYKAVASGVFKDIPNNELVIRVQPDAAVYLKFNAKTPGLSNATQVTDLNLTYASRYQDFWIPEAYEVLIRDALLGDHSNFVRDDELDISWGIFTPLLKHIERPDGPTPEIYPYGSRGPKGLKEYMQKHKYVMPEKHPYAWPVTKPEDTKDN
Nature of the assay: NADP+ reduction at […] nm, crude extract of overexpressing strain PRY63. The class given is biochemical. Particulars: 2.5 mM glucose-6-phosphate, 0.67 mM NADP+, 50 mM imidazole pH 7.0, 100 mM KCl, 10 mM MgCl2, 0.1 mM EDTA.

Assay [2] deals with T2, Zwf1 (glucose-6-phosphate dehydrogenase) (Saccharomyces cerevisiae, UniProt P11412, DEL59-59).
T2 construct: full-length, untagged; overexpressed from truncated HXT7 promoter at the genomic ZWF1 locus; crude yeast extract
T2 sequence (P11412 with tags, fused parts or gaps DEL59-59): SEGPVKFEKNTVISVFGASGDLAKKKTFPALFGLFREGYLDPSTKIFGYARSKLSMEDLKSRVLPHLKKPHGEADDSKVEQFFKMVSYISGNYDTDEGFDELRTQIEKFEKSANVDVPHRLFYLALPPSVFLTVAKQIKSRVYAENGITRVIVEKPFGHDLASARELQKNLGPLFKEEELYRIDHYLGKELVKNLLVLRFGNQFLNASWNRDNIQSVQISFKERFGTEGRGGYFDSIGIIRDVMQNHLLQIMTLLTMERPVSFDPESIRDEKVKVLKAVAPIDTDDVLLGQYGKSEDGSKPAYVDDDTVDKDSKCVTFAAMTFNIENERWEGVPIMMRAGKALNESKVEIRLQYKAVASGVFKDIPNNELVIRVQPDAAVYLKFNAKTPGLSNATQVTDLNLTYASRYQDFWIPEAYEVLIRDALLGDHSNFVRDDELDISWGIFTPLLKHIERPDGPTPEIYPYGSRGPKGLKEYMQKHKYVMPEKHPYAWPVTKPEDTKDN
In words: NADP+ reduction at […] nm, crude extract of overexpressing strain PRY48 (ZWF1*). Format: biochemical. Particulars: 2.5 mM glucose-6-phosphate, 0.67 mM NADP+, 50 mM imidazole pH 7.0, 100 mM KCl, 10 mM MgCl2, 0.1 mM EDTA.

For the next assay, the target named is T3, Xyl1 (coXYL1) (Scheffersomyces stipitis, UniProt P31867).
T3 construct: full-length, codon-optimized gene on p425H7, expressed in S. cerevisiae PRY39 (gre3 deleted); intact cells
T3 sequence (P31867 1-318): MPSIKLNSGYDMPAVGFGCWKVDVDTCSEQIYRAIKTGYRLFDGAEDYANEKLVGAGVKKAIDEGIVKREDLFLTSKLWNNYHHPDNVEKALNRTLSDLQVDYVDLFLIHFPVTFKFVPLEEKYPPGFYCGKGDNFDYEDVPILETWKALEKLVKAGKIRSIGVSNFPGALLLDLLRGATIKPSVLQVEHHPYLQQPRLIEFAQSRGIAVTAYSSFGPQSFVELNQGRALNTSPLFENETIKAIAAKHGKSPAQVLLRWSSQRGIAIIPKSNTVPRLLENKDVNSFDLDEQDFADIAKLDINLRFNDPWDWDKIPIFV
In words: xylitol formation in cells, HPLC, versus empty vector. Format: cell-based. Particulars: whole-cell fermentation, SC medium, 30 g/L glucose, 20 g/L xylose, 30 °C; NADPH-dependent.

A further assay addresses T4, Gre3 (coGRE3, ScGRE3) (Saccharomyces cerevisiae, UniProt P38715).
T4 construct: full-length, codon-optimized or native gene on p425H7, expressed in S. cerevisiae PRY39 (gre3 deleted); intact cells
T4 sequence (P38715 2-327): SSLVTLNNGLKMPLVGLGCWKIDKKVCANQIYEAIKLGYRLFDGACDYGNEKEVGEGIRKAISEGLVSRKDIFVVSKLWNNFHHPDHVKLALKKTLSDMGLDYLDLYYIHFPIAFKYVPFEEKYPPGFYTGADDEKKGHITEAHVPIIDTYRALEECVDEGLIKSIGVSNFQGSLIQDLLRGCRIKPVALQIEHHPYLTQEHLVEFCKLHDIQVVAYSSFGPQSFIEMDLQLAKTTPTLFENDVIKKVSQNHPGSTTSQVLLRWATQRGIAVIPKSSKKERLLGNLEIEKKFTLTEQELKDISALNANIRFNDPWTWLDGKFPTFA
Described as above. Format: cell-based. Particulars: whole-cell fermentation, SC medium, 30 g/L glucose, 20 g/L xylose, 30 °C; NADPH-dependent.

Take `NC(=O)c1ccc[n+]([C@@H]2O[C@H](COP(=O)(O)OP(=O)(O)OC[C@H]3O[C@@H](n4cnc5c(N)ncnc54)[C@H](OP(=O)(O)O)[C@@H]3O)[C@@H](O)[C@H]2O)c1` [NADP^+]: the “NADP+ reduction at 340 nm, crude extract of overexpressing strain PRY63” value in assay [1] is given as “The reduction of NADP^+ was recorded by continuously measuring the change of the absorbance”. Moreover, the “NADP+ reduction at 340 nm, crude extract of overexpressing strain PRY48 (ZWF1*)” value in assay [2] is recorded as “the deletion of Glu59 apparently led to a higher Zwf1 activity”.

With `OC1OC[C@@H](O)[C@H](O)[C@H]1O` (some centres unmarked) [xylose], the “xylitol formation in cells, HPLC, versus empty vector” value at Xyl1 (coXYL1) is given as “The expression of all XR constructs led to considerably high xylitol titers”; on Gre3 (coGRE3, ScGRE3) it was “The expression of all XR constructs led to considerably high xylitol titers”.

Take `O=P(O)(O)OC[C@H]1OC(O)[C@H](O)[C@@H](O)[C@@H]1O` (some centres unmarked) [glucose-6-phosphate]: the “NADP+ reduction at 340 nm, crude extract of overexpressing strain PRY63” value in assay [1] was “A G6PDH assay was performed in crude extracts from the engineered strains”.

The values are drawn from PMC11283233, “A comparative analysis of NADPH supply strategies in Saccharomyces cerevisiae: Production of D-xylitol from D-xylose as a case study” (Metabolic Engineering Communications, 2024).
